Measured values from patent US20090105322A1, “PHARMACEUTICAL COMPOSITION COMPRISING VALSARTAN” (priority 2003, published 2009).

Experiments:
[1] = system: systolic and diastolic blood pressure in patients with essential arterial hypertension; experiment: Treatment of patients with essential arterial hypertension; type: in vivo, human; conditions: 80 mg o.d.; compared with ACE inhibitors and other antihypertensive medications
Excerpt: Valsartan (CGP 48933) is an orally active, potent and specific competitive Ang II antagonist at the level of the AT1-receptor subtype.

[2] = system: AF occurrence in patients with symptomatic HF (EF<40% and dilated ventricle-LVIDD>2.9); experiment: Occurrence of AF from adverse event reports in the Val-HeFT trial; type: in vivo, human
Method: The occurrence of AF was evaluated based on adverse event reports in the patients with symptomatic heart failure (ejection fraction<40% and dilated ventricle-left ventricular internal diastolic diameter (LVIDD)>2.9) enrolled in the Val-HeFT trial. The Val-HeFT trial is set forth in Example 2. The occurrence of AF was evaluated based on adverse event reports in the patients with symptomatic HF (EF<40% and dilated ventricle-LVIDD>2.9) enrolled in the Val-HeFT trial (set forth in Example 2). Patients were randomized to valsartan or placebo on top of the prescribed treatments for heart failure. During the 23 months of follow-up of the study, AF was reported in 328/5000 patients (6.6%), 132/2506 (5.27%) in the valsartan allocated patients and 196/2494 (7.86%) in those allocated to placebo (p=0.0002). […] This is a multicountry, randomized, double-blind, forced titration, parallel, placebo-controlled trial. Patients will be stratified according to their use of beta blockers at randomization. At Visit 2, patients who meet the randomization criteria will be stratified according to their use of beta blockers and randomized to receive either valsartan 40 mg b.i.d. or placebo (Level 1). After 2 weeks of treatment (Visit 3), patients will be titrated up to receive either valsartan 80 mg b.i.d. or placebo, respectively (Level 2). The criteria for titration are given below. Following another 2 week treatment period (Visit 4), patients will again be titrated up to receive valsartan 160 mg b.i.d. or placebo, respectively (Level 3). The criteria for titration are given below. Patients not tolerating the highest dose of valsartan will be titrated down to the next lower dose after 2 weeks of treatment (Visit 5).

[3] = system: cardiac hemodynamics in CHF patients (NYHA Class II-IV); experiment: Protocol 103: chronic central hemodynamic effects in non-ACE inhibitor treated CHF patients; type: in vivo, human; conditions: 40, 80 and 160 mg b.i.d. for 4 weeks; preliminary trial results
Method: Two Phase II studies (Protocols 103 and 104) have been recently completed. Protocol 103 is a randomized, double-blind, placebo-controlled, parallel group, dose ranging trial to determine the chronic central hemodynamic effects of valsartan 40 mg b.i.d., 80 mg b.i.d., 160 mg b.i.d. and lisinopril 10 mg o.d. administered for 4 weeks to non-ACE inhibitor treated CHF patients (NYHA Class II-IV).

[4] = system: rapid pacing induced heart failure; experiment: Rapid pacing induced heart failure model in mini pigs; type: in vivo; conditions: valsartan in combination with an ACE inhibitor, compared to either ACE inhibition or AT1-receptor blockade alone
Excerpt: The effect of valsartan alone and in combination with an ACE inhibitor was studied in a model of rapid pacing induced heart failure in mini pigs.

## CCCCC(=O)N(Cc1ccc(-c2ccccc2-c2nnn[nH]2)cc1)[C@H](C(=O)O)C(C)C [valsartan, (S)-N-(1-carboxy-2-methyl-prop-1-yl)-N-pentanoyl-N-[2; (1H-tetrazol-5-yl)biphenyl-4-yl-methyl]amine]
[1]
  Decreases in systolic and diastolic blood pressure: comparable to those achieved by treatment with ACE inhibitors and other antihypertensive medications
  Tolerability profile: more favorable tolerability profile
[2]; 23 months of follow-up, valsartan on top of prescribed heart failure treatments, vs placebo 7.86%, p=0.0002
  AF reported (percent of allocated patients): 5.27%
[2]; 23 months of follow-up, valsartan on top of prescribed heart failure treatments, vs placebo 196/2494
  AF reported (patients with AF / patients allocated): 132/2506
[2]; valsartan added to prescribed therapy (93% ACE-inhibitors, 35% beta-blockers)
  Reduction of the incidence of AF: ~35%
[2]; valsartan treatment as independent predictor, 95% CI: 0.52-0.82
  RR for AF occurrence (logistic regression analysis): 0.65
[3]
  Cardiac hemodynamics versus placebo: clinically relevant and statistically significant improvements in cardiac hemodynamics versus placebo
[4]
  Left ventricular function and geometry, and myocyte inotropic response: further beneficial effects on left ventricular function and geometry, and myocyte inotropic response
